The text below walks through data of patent US20230391772A1, “METHODS AND COMPOSITIONS FOR TARGETED PROTEIN DEGRADATION” (Ranok Therapeutics (Hangzhou) Co. Ltd., priority 2020, published 2023).

As a reminder, the EC50 is the concentration that produces a half-maximal response. The low end stands for higher potency in that assay, the high end for lower potency in that assay.

The subject of assay [1] is MIA PaCa-2 human pancreatic carcinoma. The assay is described as follows: MIA PaCa-2 CCK-8 proliferation assay. Format: cell-based. To be noted: Homo sapiens, MIA PaCa-2, 72 h, MIA PaCa-2 cells. In short, it runs like this:
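Proliferation of mutant-KRAS(G12C) cells (2 copies in MIA PaCa-2, single copy in NCI-H358/NCI-H23) measured with CCK-8 after treatment across 20 μM–1.02 nM; inhibition expressed relative to vehicle-treated wells after subtracting no-cell background.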

The target in a further assay is KRAS(G12C) (Homo sapiens, UniProt P01116, G12C). The assay is described as follows: KRAS(G12C)/SOS1 homogeneous time-resolved fluorescence (HTRF) assay. Also on record: purchased Cisbio 63ADK000CB16PEG. As to conditions: absence of GTP, 4° C. for 3 hr, read-out: KRAS (G12C) binding. In short, it runs like this:
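Three-hour incubation at 4 °C of 3-fold compound dilutions (lowest 1.02 nM) with KRAS(G12C), SOS1 and detection reagents, GTP absent. Disruption of the KRAS(G12C)/SOS1 complex detected by time-resolved fluorescence.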

The next assay has as its target T1, HSP90a protein (Homo sapiens, UniProt P07900).
T1 construct: purchased BPS Bioscience 50298
In words: HSP90α-binding fluorescent polarization (FP) assay, BODIPY-labeled RNK04010 probe. As to conditions: FP competition with RNK04010 (BODIPY-labeled), 5 nM, 300 min at 25° C. In short, it runs like this:
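Binding was scored by fluorescence polarization after adding N-terminal HSP90a to wells holding probe and compound, with compound tested from 20 μM to 5.2 nM. Probe-dependent times at 25° C were 120 min for FITC-geldanamycin and 300 min for RNK04010-BODIPY, both at 5 nM final.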

Molecules are shown by their SMILES.

Chain of KRAS(G12C) (P01116 1-188 isoform P01116-2 G12C): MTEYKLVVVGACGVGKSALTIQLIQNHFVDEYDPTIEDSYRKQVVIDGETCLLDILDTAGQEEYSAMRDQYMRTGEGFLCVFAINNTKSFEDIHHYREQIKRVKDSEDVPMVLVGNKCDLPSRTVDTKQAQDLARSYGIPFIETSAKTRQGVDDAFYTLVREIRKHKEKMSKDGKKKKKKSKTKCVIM

In assay [1], `C=CC(=O)N1CCN(c2nc(OC[C@@H]3C[C@H](N4CCC(C(=O)N5CCN(Cc6ccc(-n7c(C(=O)NCCN8CCN(S(C)(=O)=O)CC8)nnc7-c7cc(C(C)C)c(O)cc7O)cc6)CC5)CC4)CN3C)nc3c2CCN(c2cccc4cccc(Cl)c24)C3)C[C@@H]1CC#N` [Compound 327, 4-{4-[(4-{1-[(3S,5S)-5-({[7-(8-chloronaphthalen-1-yl)-4-[(3S)-3-(cyanomethyl)-4-(prop-2-enoyl)piperazin-1-yl]-5H,6H,8H-pyrido[3,4-d]pyrimidin-2-yl]oxy}methyl)-1-methylpyrrolidin-3-yl]piperidine-4-carbonyl}piperazin-1-yl)methyl]phenyl}-5-(2,4-dihydroxy-5-isopropylphenyl)-N-[2-(4-methanesulfonylpiperazin-1-yl)ethyl]-1,2,4-triazole-3-carboxamide] came in with a concentration for a half-maximal effect (EC50) of 100 to 1000 nM. Moreover, the IC50 at KRAS(G12C) and on HSP90a protein was under 100 nM each time.

As for `C=CC(=O)N1CCN(c2nc(OC[C@@H]3C[C@H](N4CCC(C(=O)NCCc5ccc(-n6c(O)nnc6-c6cc(C(C)C)c(O)cc6O)cc5)CC4)CN3C)nc3c2CCN(c2cccc4cccc(Cl)c24)C3)C[C@@H]1CC#N` [Compound 328, 1-[(3S,5S)-5-({[7-(8-chloronaphthalen-1-yl)-4-[(3S)-3-(cyanomethyl)-4-(prop-2-enoyl)piperazin-1-yl]-5H,6H,8H-pyrido[3,4-d]pyrimidin-2-yl]oxy}methyl)-1-methylpyrrolidin-3-yl]-N-(2-{4-[3-(2,4-dihydroxy-5-isopropylphenyl)-5-hydroxy-1,2,4-triazol-4-yl]phenyl}ethyl)piperidine-4-carboxamide], in assay [1], the EC50 is over 1000 nM. The IC50 on KRAS(G12C) and at HSP90a protein was under 100 nM in each case.

Take `C=CC(=O)N1CCN(c2nc(OC[C@@H]3CC[C@H](C(=O)N4CCN(Cc5cc(C(C)C)c(O)cc5O)CC4)N3C)nc3c2CCN(c2cccc4cccc(Cl)c24)C3)C[C@@H]1CC#N` [Compound 329, 2-[(2S)-4[7-(8chloronaphthalen-1-yl)-2-{[(2S,5R)-5-{4-[(2,4-dihydroxy-5-isopropylphenyl)methyl]piperazine-1-carbonyl}-1-methylpyrrolidin-2-yl]methoxy}-5H,6H,8H-pyrido[3,4-d]pyrimidin-4-yl]-1-(prop-2-enoyl)piperazin-2-yl]acetonitrile]: the EC50 in assay [1] is over 1000 nM. The IC50 at KRAS(G12C) is 100 to 1000 nM; on HSP90a protein, under 100 nM.

In turn, `C=CC(=O)N1CCN(c2nc(OC[C@@H]3C[C@H](N4CCC(C(=O)NCCc5ccc(CN6CCC(Cc7ccc(-n8c(C(=O)NCC(F)(F)F)nnc8-c8cc(C(C)C)c(O)cc8O)cc7)CC6)cc5)CC4)CN3C)nc3c2CCN(c2cccc4cccc(Cl)c24)C3)C[C@@H]1CC#N` [Compound 330, 1-[(3S,5S)-5-({[7-(8-chloronaphthalen-1-yl)-4-[(3S)-3-(cyanomethyl)-4-(prop-2-enoyl)piperazin-1-yl]-5H,6H,8H-pyrido[3,4-d]pyrimidin-2-yl]oxy}methyl)-1-methylpyrrolidin-3-yl]-N-[2-(4-{[4-({4-[3-(2,4-dihydroxy-5-isopropylphenyl)-5-[(2,2,2-trifluoroethyl)carbamoyl]-1,2,4-triazol-4-yl]phenyl}methyl)piperidin-1-yl]methyl}phenyl)ethyl]piperidine-4-carboxamide] gave a concentration giving a half-maximal response (EC50) in assay [1] of 100 to 1000 nM. Moreover, the figures for the IC50 at KRAS(G12C) and on HSP90a protein were 100 to 1000 nM and under 100 nM, respectively.

In turn, `C=CC(=O)N1CCN(c2nc(OC[C@@H]3CC[C@H](C(=O)N4CCN(C(=O)c5ccc(-n6c(C(=O)NCC(F)(F)F)nnc6-c6cc(C(C)C)c(O)cc6O)cc5)CC4)N3C)nc3c2CCN(c2cccc4cccc(Cl)c24)C3)C[C@@H]1CC#N` [Compound 331, 4-(4-{4-[(2R,5S)-5-({[7-(8-chloronaphthalen-1-yl)-4-[(3S)-3-(cyanomethyl)-4-(prop-2-enoyl)piperazin-1-yl]-5H,6H,8H-pyrido[3,4-d]pyrimidin-2-yl]oxy}methyl)-1-methylpyrrolidine-2-carbonyl]piperazine-1-carbonyl}phenyl)-5-(2,4-dihydroxy-5-isopropylphenyl)-N-(2,2,2-trifluoroethyl)-1,2,4-triazole-3-carboxamide] had an EC50 in assay [1] of under 100 nM. Moreover, the IC50 at KRAS(G12C) and at HSP90a protein was under 100 nM each time.

In the case of `C=CC(=O)N1CCN(c2nc(OC[C@@H]3CC[C@H](C(=O)N4CCN(C(=O)C5CCN(Cc6ccc(-n7c(C(=O)NCC(F)(F)F)nnc7-c7cc(C)c(O)cc7O)cc6)CC5)CC4)N3C)nc3c2CCN(c2cccc4cccc(Cl)c24)C3)C[C@@H]1CC#N` [Compound 332, 4-{4-[(4-{4-[(2R,5S)-5-({[7-(8-chloronaphthalen-1-yl)-4-[(3S)-3-(cyanomethyl)-4-(prop-2-enoyl)piperazin-1-yl]-5H,6H,8H-pyrido[3,4-d]pyrimidin-2-yl]oxy}methyl)-1-methylpyrrolidine-2-carbonyl]piperazine-1-carbonyl}piperidin-1-yl)methyl]phenyl}-5-(2,4-dihydroxy-5-methylphenyl)-N-(2,2,2-trifluoroethyl)-1,2,4-triazole-3-carboxamide], the EC50 in assay [1] was under 100 nM. The IC50 at KRAS(G12C) and at HSP90a protein was under 100 nM each time.

In assay [1], `C=CC(=O)N1CCN(c2nc(OC[C@@H]3C[C@H](C(=O)N4CCN(Cc5ccc(-n6c(C(=O)NCC(F)(F)F)nnc6-c6cc(C(C)C)c(O)cc6O)cc5)CC4)CN3C)nc3c2CCN(c2cccc4cccc(Cl)c24)C3)C[C@@H]1CC#N` [Compound 333, 4-[4-({4-[(3S,5S)-5-({[7-(8-chloronaphthalen-1-yl)-4-[(3S)-3-(cyanomethyl)-4-(prop-2-enoyl)piperazin-1-yl]-5H,6H,8H-pyrido[3,4-d]pyrimidin-2-yl]oxy}methyl)-1-methylpyrrolidine-3-carbonyl]piperazin-1-yl}methyl)phenyl]-5-(2,4-dihydroxy-5-isopropylphenyl)-N-(2,2,2-trifluoroethyl)-1,2,4-triazole-3-carboxamide] showed a half-maximal effective concentration (EC50) of under 100 nM. Moreover, the results for the IC50 at KRAS(G12C) and at HSP90a protein were 100 to 1000 nM and under 100 nM, respectively.

`C=CC(=O)N1CCN(c2nc(OC[C@@H]3C[C@H](N4CCC(C(=O)NCCOCCOc5ccc(-n6c(O)nnc6-c6cc(CC)c(O)cc6O)cc5)CC4)CN3C)nc3c2CCN(c2cccc4cccc(Cl)c24)C3)C[C@@H]1CC#N` [Compound 335, 1-[(3S,5S)-5-({[7-(8-chloronaphthalen-1-yl)-4-[(3S)-3-(cyanomethyl)-4-(prop-2-enoyl)piperazin-1-yl]-5H,6H,8H-pyrido[3,4-d]pyrimidin-2-yl]oxy}methyl)-1-methylpyrrolidin-3-yl]-N-[2-(2-{4-[3-(5-ethyl-2,4-dihydroxyphenyl)-5-hydroxy-1,2,4-tri-azol-4-yl]phenoxy}ethoxy)ethyl]piperidine-4-carboxamide] returned an EC50 in assay [1] of over 1000 nM. Further, the IC50 at KRAS(G12C) and on HSP90a protein was under 100 nM each time.

As for `C=CC(=O)N1CCN(c2nc(OC[C@@H]3C[C@H](N(C)CCC(=O)N4CCN(Cc5ccc(-n6c(C(=O)NCC(F)(F)F)nnc6-c6cc(C(C)C)c(O)cc6O)cc5)CC4)CN3C)nc3c2CCN(c2cccc4cccc(Cl)c24)C3)C[C@@H]1CC#N` [Compound 337, 4-(4-{[4-(3-{[(3S,5S)-5-({[7-(8-chloronaphthalen-1-yl)-4-[(3S)-3-(cyanomethyl)-4-(prop-2-enoyl)piperazin-1-yl]-5H,6H,8H-pyrido[3,4-d]pyrimidin-2-yl]oxy}methyl)-1-methylpyrrolidin-3-yl](methyl)amino}propanoyl)piperazin-1-yl]methyl}phen-yl)-5-(2,4-dihydroxy-5-isopropylphenyl)-N-(2,2,2-trifluoroethyl)-1,2,4-triazole-3-carboxamide], the EC50 in assay [1] was in the range of 100 to 1000 nM. Also, the IC50 at KRAS(G12C) is 100 to 1000 nM; at HSP90a protein, under 100 nM.

For the molecule `C=CC(=O)N1CCN(c2nc(OC[C@@H]3C[C@H](N4CCC5(CCN(Cc6cc(C(C)C)c(O)cc6O)CC5)CC4)CN3C)nc3c2CCN(c2cccc4cccc(Cl)c24)C3)C[C@@H]1CC#N` [Compound 338, 2-[(2S)-4-[7-(8-chloronaphthalen-1-yl)-2-{[(2S,4S)-4-{9-[(2,4-dihydroxy-5-isopropylphenyl)methyl]-3,9-diazaspiro[5.5]undecan-3-yl}-1-methylpyrrolidin-2-yl]methoxy}-5H,6H,8H-pyrido[3,4-d]pyrimidin-4-yl]-1-(prop-2-enoyl)piperazin-2-yl]acetonitrile], the half-maximal effective concentration (EC50) in assay [1] is over 1000 nM. Further, the IC50 was under 100 nM at KRAS(G12C) and 100 to 1000 nM at HSP90a protein.

For the molecule `C=CC(=O)N1CCN(c2nc(OC[C@@H]3C[C@H](C(=O)N4CCN(Cc5ccc(-n6c(C(=O)NCC(F)(F)C(F)(F)F)nnc6-c6cc(C(C)C)c(O)cc6O)cc5)CC4)CN3C)nc3c2CCN(c2cccc4cccc(Cl)c24)C3)C[C@@H]1CC#N` [Compound 339, 4-[4-({4-[(3S,5S)-5-({[7-(8-chloronaphthalen-1-yl)-4-[(3S)-3-(cyanomethyl)-4-(pr-op-2-enoyl)piperazin-1-yl]-5H,6H,8H-pyrido[3,4-d]pyrimidin-2-yl]oxy}methyl)-1-methylpyrrolidine-3-carbonyl]piperazin-1-yl}methyl)phenyl]-5-(2,4-dihydroxy-5-isopropylphenyl)-N-(2,2,3,3,3-pentafluoropropyl)-1,2,4-triazole-3-carboxamide], in assay [1], the 50% effective concentration (EC50) fell in the range of 100 to 1000 nM. Also, the IC50 was 100 to 1000 nM at KRAS(G12C) and under 100 nM on HSP90a protein.
